In one experiment the target is T1, MCR-1 (Homo sapiens, UniProt Q01726).
T1 construct: expressed in transfected cells; host or cells: HEK 293
Nature of the experiment: Melanocortin receptor binding assay, competition with 125I-HP 467, HEK 293 cells expressing hMCR-1. Particulars: for IC50: read-out: MC-1 IC50. An outline of the steps: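 Intact-cell competition binding, 2.5 hr at 37 °C, in PBS/10% calf serum/1 mM CaCl2; hMCR-4 cells at 4×10^3 per tube, hMCR-1 cells at 2×10^4 per tube. Filtration on BSA/CaCl2-soaked GF/B, cold 50 mM Tris pH 7.4 washes, scintillation count.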

Another experiment concerns the target T2, MCR-4 (Homo sapiens, UniProt P32245).
T2 construct: expressed in transfected cells; host or cells: HEK 293
Nature of the experiment: Melanocortin receptor binding assay, competition with 125I-HP 467, HEK 293 cells expressing hMCR-4. Particulars: for IC50: read-out: MC-4 IC50. Here is the method: All cell culture media and reagents were obtained from GibcoBRL (Gaithersburg Md.), except for COSMIC CALF SERUM (HyClone; Logan Utah).
Cells were suspended in PBS, 10% COSMIC CALF SERUM and 1 mM CaCl2. Cell suspensions were prepared at a density of 2×10^4 cells/ml for HEK 293 cells expressing hMCR-3, hMCR-4 or hMCR-5, and 1×10^5 cells/ml for HEK 293 cells expressing hMCR-1. Suspensions were placed in a water bath and allowed to warm to 37° C. for 1 hr.
Binding assays were performed in a total volume of 250 μl for HEK 293 cells. […] To each tube was added 4×10^3 HEK 293 cells expressing hMCR-3, hMCR-4 or hMCR-5, or 2×10^4 cells expressing hMCR-1. Assays were incubated for 2.5 hr at 37° C.
GF/B filter plates were prepared by soaking for at least one hour in 5 mg/ml BSA and 10 mM CaCl2. Assays were filtered using a Brandel 96-well cell harvester (Brandel Inc.; Gaithersburg, Md.). The filters were washed four times with cold 50 mM Tris, pH 7.4, the filter plates were dehydrated for 2 hr and 35 μl of MICROSCINT was added to each well. Filter plates were counted using a Packard Topcount (Packard Instrument Co.) and data analyzed using GraphPad PRISM v2.0 (GraphPad Software Inc.; San Diego Calif.) and Microsoft EXCEL v5.0a (Microsoft Corp.; Redmond Wash.).
To assay isoquinoline compounds, binding assays were performed in duplicate in a 96 well format. […] A 0.2 ml aliquot of suspended cells was added to each well to give the cell numbers indicate above, and the cells were incubated at 37° C. for 2.5 hr. Cells were harvested on GF/B filter plates as described above and counted.

[1] abbreviates: TRG 2406 and TRG 2407 libraries, inhibition of binding of 125I-HP 467.
The mark [2] stands for this setting: TRG 2408 and TRG 2409 libraries, inhibition of 125I-HP 467 binding.
Where [3] appears, read: competition with 125I-HP 467, HEK 293 cells expressing MCR-1.
Where [4] appears, read: competition with 125I-HP 467, HEK 293 cells expressing MCR-4.
[5] abbreviates: inhibition of binding of 125I-HP 467, HEK 293 cells expressing MCR-1, TRG 2414 library.
Setting [6] is: inhibition of binding of 125I-HP 467, HEK 293 cells expressing MCR-4, TRG 2414 library.

Like-named read-outs stand apart in the source and are kept apart here.

T2 sequence (P32245 whole entry): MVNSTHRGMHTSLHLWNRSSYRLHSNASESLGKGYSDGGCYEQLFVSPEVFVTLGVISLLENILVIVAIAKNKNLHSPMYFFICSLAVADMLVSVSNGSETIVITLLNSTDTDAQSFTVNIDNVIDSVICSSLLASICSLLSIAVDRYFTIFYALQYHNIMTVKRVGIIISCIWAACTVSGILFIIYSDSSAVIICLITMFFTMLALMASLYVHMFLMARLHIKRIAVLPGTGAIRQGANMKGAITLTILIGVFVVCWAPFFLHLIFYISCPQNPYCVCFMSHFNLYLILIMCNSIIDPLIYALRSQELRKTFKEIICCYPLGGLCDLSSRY
T1 sequence (Q01726 whole entry): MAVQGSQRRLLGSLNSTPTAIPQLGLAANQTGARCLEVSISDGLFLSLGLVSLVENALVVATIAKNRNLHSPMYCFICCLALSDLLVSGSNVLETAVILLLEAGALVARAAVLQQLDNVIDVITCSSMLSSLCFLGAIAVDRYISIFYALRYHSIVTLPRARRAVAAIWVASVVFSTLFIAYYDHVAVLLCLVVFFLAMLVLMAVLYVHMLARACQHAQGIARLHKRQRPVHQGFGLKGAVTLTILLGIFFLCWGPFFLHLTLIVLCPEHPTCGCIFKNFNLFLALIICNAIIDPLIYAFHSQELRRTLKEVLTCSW

In general, IC50 refers to the concentration needed to halve the response being measured. On to `CNC(CN)CCCCN1Cc2ccccc2C(CNCCc2ccccc2Cl)C1c1ccc(Cl)cc1Cl` (mixture of isomers) [TRG 2407-22], for which the IC50 worked out at 1340 nM at MCR-1 (setting [1]) and 690 nM on MCR-4 (setting [1]).
Consider `CNC(CN)CCCCN1Cc2ccccc2C(CNCCc2ccccc2OC)C1c1ccc(Cl)cc1Cl` (mixture of isomers) [TRG 2407-23], for which the IC50 came out at 940 nM on MCR-1 (setting [1]) and 690 nM on MCR-4 (setting [1]).
For `CNC(CN)CCCCN1Cc2ccccc2C(CNCCc2cccc(Cl)c2)C1c1ccc(Cl)cc1Cl` (mixture of isomers) [TRG 2407-24] the same measures were 1790 nM and 800 nM.
The matching figures for `CNC(CN)CCCCN1Cc2ccccc2C(CNCC2CCCCC2)C1c1ccc(Cl)cc1Cl` (mixture of isomers) [TRG 2407-31]: 1110 nM and 1020 nM.
For `CNC(CN)CCCCN1Cc2ccccc2C(CNN2CCCCC2)C1c1ccc(Cl)cc1Cl` (mixture of isomers) [TRG 2407-34] the same measures were 3970 nM and 2010 nM.
On to `CCNc1ccc(C2C(CNc3cccc(O)c3)c3ccccc3CN2CCCCC(CN)NC)cc1` (mixture of isomers) [TRG 2407-47], for which the IC50 at MCR-1 (setting [1]) was determined as 840 nM. On MCR-4 (setting [1]), the “MC-4 IC50” value is on record as “no fit”.
Consider `CCNc1ccc(C2C(CNC3CCCCC3)c3ccccc3CN2CCCCC(CN)NCCN)cc1` (mixture of isomers) [TRG 2408-7], for which the IC50 on MCR-1 (setting [2]) worked out at 1300 nM; on MCR-4 (setting [2]), 44500 nM.
For the compound `CNCCNC(CN)CCCCN1Cc2ccccc2C(CNC2CCCCC2)C1c1ccc(-c2ccccc2)cc1` (mixture of isomers) [TRG 2408-24], the IC50 worked out at 1940 nM on MCR-1 (setting [2]) and 17100 nM at MCR-4 (setting [2]).
With `CCNc1ccc(C2C(CNC3CCCCC3)c3ccccc3CN2CCCCC(N)CN)cc1` (mixture of isomers) [TRG 2408-31], the IC50 turned out to be 1270 nM on MCR-1 (setting [2]) and 46500 nM on MCR-4 (setting [2]).
The matching figures for `NCC(CCN1Cc2ccccc2C(CNC2CCCCC2)C1c1ccc(Cl)cc1Cl)NCCc1ccccc1` (mixture of isomers) [TRG 2408-102]: 7050 nM and 1880 nM.
`NCC(N)CCN1Cc2ccccc2C(CNC2CCCCC2)C1c1ccc(-c2ccccc2)cc1` (mixture of isomers) [TRG 2408-111]: the values for the IC50 at MCR-1 (setting [2]) and at MCR-4 (setting [2]) were 7520 nM and 12000 nM, respectively.
For the compound `CNCCNC(CN)CCN1Cc2ccccc2C(CNC2CCCCC2)C1c1ccc(-c2ccccc2)cc1` (mixture of isomers) [TRG 2408-114], the IC50 on MCR-1 (setting [2]) came out at 3240 nM; on MCR-4 (setting [2]), 10500 nM.
Consider `CNC(C)CNC(CN)CCCCN1Cc2ccccc2C(CN)C1c1ccc(-c2ccccc2)cc1` (mixture of isomers) [TRG 2411-28], for which the IC50 was determined as 560 nM at MCR-1 (setting [3]) and 1230 nM at MCR-4 (setting [4]).
Regarding `CCNc1ccc(C2C(CNCCc3ccccc3)c3ccccc3CN2CCCCC(CN)NCCc2ccc(Br)cc2)cc1` (mixture of isomers) [TRG 2411-41], the results for the IC50 at MCR-1 (setting [3]) and on MCR-4 (setting [4]) were 490 nM and 1640 nM, respectively.
Regarding `CCCCNc1ccc(C2C(CNC3CCCCC3)c3ccccc3CN2CCCCC(CN)NCC)cc1` (mixture of isomers) [TRG 2411-87], the IC50 at MCR-1 (setting [3]) turned out to be 230 nM; at MCR-4 (setting [4]), 830 nM.
As for `COc1ccccc1CCNCC1c2ccccc2CN(CCCCC(N)CN)C1c1ccc(Cl)cc1Cl` (mixture of isomers) [TRG 2414-9], the results for the IC50 on MCR-1 (setting [5]) and on MCR-4 (setting [6]) were 1100 nM and 700 nM, respectively.
For `COc1ccccc1CCNCC1c2ccccc2CN(CCCCC(CN)NCc2ccccc2)C1c1ccc(Cl)cc1Cl` (mixture of isomers) [TRG 2414-11], the IC50 at MCR-1 (setting [5]) was 1800 nM; at MCR-4 (setting [6]), 3480 nM.
The matching figures for `COc1ccc(CCNCC2c3ccccc3CN(CCCCC(CN)NCCc3ccccc3)C2c2ccc(Cl)cc2Cl)cc1` (mixture of isomers) [TRG 2414-26]: 3950 nM and 2520 nM.
For `NCC(N)CCCCN1Cc2ccccc2C(CNC2CCCCCC2)C1c1ccc(Cl)cc1Cl` (mixture of isomers) [TRG 2414-33] the same measures were 1900 nM and 720 nM.
For `NCC(N)CCCCN1Cc2ccccc2C(CNC2CCCCC2)C1c1ccc(Cl)cc1Cl` (mixture of isomers) [TRG 2414-37] the same measures were 992 nM and 1300 nM.
Take `NCC(CCCCN1Cc2ccccc2C(CNC2CCCCC2)C1c1ccc(Cl)cc1Cl)NCc1ccccc1` (mixture of isomers) [TRG 2414-39]: the IC50 is 2120 nM on MCR-1 (setting [5]) and 4370 nM at MCR-4 (setting [6]).
The matching figures for `COc1ccccc1CCNCC1c2ccccc2CN(CCCCC(CN)NCC(C)c2ccc(CC(C)C)cc2)C1c1cc(C(F)(F)F)cc(C(F)(F)F)c1` (mixture of isomers) [TRG 2414-52]: 22100 nM and 17500 nM.
For `NCC(N)CCCCN1Cc2ccccc2C(CNCc2ccccc2C(F)(F)F)C1c1cccc(Oc2ccccc2)c1` (mixture of isomers) [TRG 2414-81] the same measures were 10800 nM and 9870 nM.
For `NCC(CCCCN1Cc2ccccc2C(CNCc2ccccc2C(F)(F)F)C1c1cccc(Oc2ccccc2)c1)NCCc1ccccc1` (mixture of isomers) [TRG 2414-82], the “MC-1 IC50” value at MCR-1 (setting [5]) is on record as “no fit”. Moreover, the IC50 at MCR-4 (setting [6]) is 42900 nM.
For `CCOc1ccccc1CNCC1c2ccccc2CN(CCCCC(N)CN)C1c1cccc(Oc2ccccc2)c1` (mixture of isomers) [TRG 2414-85], the IC50 on MCR-1 (setting [5]) worked out at 2430 nM; on MCR-4 (setting [6]), 2170 nM.
Consider `COc1ccccc1CCNCC1c2ccccc2CN(CCCCC(CN)NCC(C)c2ccc(CC(C)C)cc2)C1c1cccc(Oc2ccccc2)c1` (mixture of isomers) [TRG 2414-92], for which the IC50 at MCR-1 (setting [5]) was determined as 42600 nM. Besides, the “MC-4 IC50” value on MCR-4 (setting [6]) is given as “no fit”.
As to `COc1cccc(CNCC2c3ccccc3CN(CCCCC(N)CN)C2c2cccc(Oc3ccccc3)c2)c1` (mixture of isomers) [TRG 2414-97], the IC50 on MCR-1 (setting [5]) was determined as 4510 nM; at MCR-4 (setting [6]), 2500 nM.
The matching figures for `COc1cccc(CNCC2c3ccccc3CN(CCCCC(CN)NCCc3ccccc3)C2c2cccc(Oc3ccccc3)c2)c1` (mixture of isomers) [TRG 2414-98]: 13200 nM and 9610 nM.
For `COc1ccc(CNCC2c3ccccc3CN(CCCCC(CN)NCc3ccccc3)C2c2cccc(Oc3ccccc3)c2)cc1` (mixture of isomers) [TRG 2414-103] the same measures were 8140 nM and 7480 nM.
Consider `NCC(CCCCN1Cc2ccccc2C(CNC2CCCCC2)C1c1cccc(Oc2ccccc2)c1)NCCc1ccccc1` (mixture of isomers) [TRG 2414-118], for which the IC50 at MCR-1 (setting [5]) was determined as 8440 nM; at MCR-4 (setting [6]), 4490 nM.
Regarding `CCOc1ccccc1CNCC1c2ccccc2CN(CCCCC(CN)NCC(C)c2ccc(CC(C)C)cc2)C1c1ccc(Oc2ccccc2)cc1` (mixture of isomers) [TRG 2414-128], at MCR-1 (setting [5]), the IC50 came out at 25000 nM. Besides, the “MC-4 IC50” value on MCR-4 (setting [6]) is “no fit”.
As to `COc1ccccc1CCNCC1c2ccccc2CN(CCCCC(N)CN)C1c1ccc(Oc2ccccc2)cc1` (mixture of isomers) [TRG 2414-129], the half-inhibitory concentration (IC50) was found to be 146 nM at MCR-1 (setting [5]) and 5580 nM at MCR-4 (setting [6]).
For `COc1ccc(CCNCC2c3ccccc3CN(CCCCC(CN)NCCc3ccccc3)C2c2ccc(Oc3ccccc3)cc2)cc1` (mixture of isomers) [TRG 2414-146] the same measures were 8200 nM and 16800 nM.

These data come from US6608082B1, “Treatment of erectile dysfunction using isoquinoline compound melanocortin receptor ligands” (Lion Bioscience AG, priority 1998, dated 2003).
